Patent US20240426807A1, “SCREENING SYSTEM” (Givaudan SA, priority 2021, published 2024)
“Also recorded” adds a separate entry of the source.

Legend:
Format in all cases: cell-based
OR10G7 = target: T1, OR10G7 (Homo sapiens, UniProt Q8NGN6, T5S); test: Ligand-induced OR-dependent puromycin resistance, OR10G7 cells; details: HEK293T, pGL4.29-CRE-Puro-Hygro-OR with OR10G7; musk ketone 10 μM, eugenol or isoeugenol 1 μM, ultravanil or vanitrope 100 μM; puromycin 0.015-16 μg/ml; PrestoBlue viability day 4
T1 construct: expressed in transfected cells
T1 sequence (Q8NGN6 1-311 T5S): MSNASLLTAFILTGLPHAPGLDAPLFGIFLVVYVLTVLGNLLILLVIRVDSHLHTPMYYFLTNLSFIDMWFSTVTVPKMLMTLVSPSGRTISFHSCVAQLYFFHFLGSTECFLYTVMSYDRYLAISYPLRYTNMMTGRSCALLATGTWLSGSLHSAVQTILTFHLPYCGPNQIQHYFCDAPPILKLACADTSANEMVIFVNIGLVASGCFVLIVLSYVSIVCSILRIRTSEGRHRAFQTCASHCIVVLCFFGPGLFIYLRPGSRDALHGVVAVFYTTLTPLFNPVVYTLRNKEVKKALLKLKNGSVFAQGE
Procedure: (§1) Stable clones selected with hygromycin containing a stable insertion of the pGL4.29-CRE-Puro-Hygro-OR construct described in Example 1 with either one of the receptors OR10G7, OR10G9 or OR5AN1 (NCBI Genbank Gene ID 390265, 219870 and 390195) were plated at a density of 3000 cells/per well in 200 μl Dubelcco's Modified Eagle medium (DMEM) in polyethyleneimide-coated, white 96 well microtiter plates with a transparent bottom. After cells were allowed to adhere for 24 h, they were exposed to different odorants (musk ketone at 10 μM, eugenol or isoeugenol at 1 μM, ultravanil or vanitrope at 100 μM). 7 h after odorant addition, 100 μl of the medium was removed and replaced with fresh medium with the same odorant concentrations and, in addition, puromycin to reach a final concentration of 0.015-16 μg/ml in 11 twofold dilution steps (day 1 of selection). On day 2 and 3, 100 μl of the medium was again removed and replaced with fresh medium with the same concentration of odorant and puromycin. On day 4 of the selection, medium from each well was removed completely, 100 ul PrestoBlue® cell viability reagent (ThermoFisher Scientific, Catalog No: 14200-083) diluted in phosphate buffered saline was added to each well and cells were incubated at 37° C. until a color change was visible in the wells containing no puromycin. The fluorescence was determined at 560 excitation and 590 nm emission to assess relative cell metabolic activity, which is the net result of cell growth and cell killing in presence of the different puromycin concentrations. The result was expressed as % viability relative to controls with no cells (0%) and cells treated with olfactory ligand only (100%).

OR5AN1 = target: T2, OR5AN1 (Homo sapiens, UniProt Q8NGI8); test: Ligand-induced OR-dependent puromycin resistance, OR5AN1 cells; details: HEK293T, pGL4.29-CRE-Puro-Hygro-OR with OR5AN1; musk ketone 10 μM, eugenol or isoeugenol 1 μM, ultravanil 100 μM; puromycin 0.015-16 μg/ml; PrestoBlue viability day 4
T2 construct: expressed in transfected cells
T2 sequence (Q8NGI8 1-311): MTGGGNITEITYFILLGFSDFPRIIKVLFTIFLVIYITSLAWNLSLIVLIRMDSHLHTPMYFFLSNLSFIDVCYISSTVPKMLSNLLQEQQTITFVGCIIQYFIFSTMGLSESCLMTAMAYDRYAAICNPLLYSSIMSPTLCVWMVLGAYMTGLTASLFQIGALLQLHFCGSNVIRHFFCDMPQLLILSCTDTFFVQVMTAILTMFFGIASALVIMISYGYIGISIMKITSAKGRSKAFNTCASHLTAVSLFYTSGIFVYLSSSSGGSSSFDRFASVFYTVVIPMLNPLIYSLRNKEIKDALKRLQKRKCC
Procedure: as §1

OR10G9 = target: T3, OR10G9 (Homo sapiens, UniProt Q8NGN4); test: Ligand-induced OR-dependent puromycin resistance, OR10G9 cells; details: HEK293T, pGL4.29-CRE-Puro-Hygro-OR with OR10G9; musk ketone 10 μM, eugenol or isoeugenol 1 μM, ultravanil or vanitrope 100 μM; puromycin 0.015-16 μg/ml; PrestoBlue viability day 4
T3 construct: expressed in transfected cells
T3 sequence (Q8NGN4 1-311): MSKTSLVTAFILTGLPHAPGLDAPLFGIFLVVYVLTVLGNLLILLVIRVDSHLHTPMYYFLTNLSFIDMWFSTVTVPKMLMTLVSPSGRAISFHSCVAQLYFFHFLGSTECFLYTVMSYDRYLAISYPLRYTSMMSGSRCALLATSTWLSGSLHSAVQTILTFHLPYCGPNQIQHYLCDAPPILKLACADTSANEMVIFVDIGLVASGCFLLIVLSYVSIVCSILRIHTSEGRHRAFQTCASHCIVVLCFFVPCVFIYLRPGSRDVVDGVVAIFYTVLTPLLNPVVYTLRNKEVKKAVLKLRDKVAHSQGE
Procedure: as §1

OR5A2 (clone 3) = target: T4, OR5A2 (clone 3) (Homo sapiens, UniProt Q8NGI9); test: Ligand-induced puromycin resistance of isolated clone 3 containing OR5A2; details: clone 3 (OR5A2), 11 concentrations of puromycin, co-treated with olfactory ligands
T4 construct: expressed in transfected cells; clone 3 selected with musk ambrette and puromycin
T4 sequence (Q8NGI9 with tags, fused parts or gaps): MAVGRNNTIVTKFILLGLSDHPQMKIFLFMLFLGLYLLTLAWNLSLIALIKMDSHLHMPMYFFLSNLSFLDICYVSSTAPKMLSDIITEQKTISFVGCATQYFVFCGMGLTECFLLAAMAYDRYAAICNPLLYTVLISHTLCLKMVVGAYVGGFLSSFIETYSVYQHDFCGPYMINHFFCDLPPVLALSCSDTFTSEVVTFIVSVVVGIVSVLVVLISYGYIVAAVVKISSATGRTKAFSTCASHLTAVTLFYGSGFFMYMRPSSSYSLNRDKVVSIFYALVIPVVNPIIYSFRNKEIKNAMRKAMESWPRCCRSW

SMILES	puromycin resistance in presence of odorant versus solvent control (OR10G7)	puromycin resistance in presence of odorant versus solvent control (OR5AN1)	puromycin resistance in presence of odorant versus solvent control (OR10G9)	puromycin resistance of clone 3 in presence of odorant (OR5A2 (clone 3))
C=CCc1ccc(O)c(OC)c1 [eugenol]	increased resistance to puromycin; also recorded: strongly enhanced puromycin resistance	do not increase resistance over solvent control; also recorded: the resistance was equal to the solvent control	no increased resistance	no increased resistance
CC(=O)c1c(C)c([N+](=O)[O-])c(C(C)(C)C)c([N+](=O)[O-])c1C [musk ketone]	does not increase resistance over solvent control; also recorded: no induced puromycin resistance over solvent control	increased resistance to puromycin; also recorded: enhanced puromycin resistance	no increased resistance	–
